Source: US7989649B2, “Tumor imaging compounds” (Emory University, priority 2002, dated 2011)

Legend:
[1] = system: 9 L gliosarcoma tumor; experiment: Biodistribution in Fischer rats with intracranial 9 L gliosarcoma tumor; format: in vivo; conditions: for Tissue distribution of radioactivity, Blood / Tissue distribution of radioactivity, Bone / Tissue distribution of radioactivity, Heart / Tissue distribution of radioactivity, Kidney / Tissue distribution of radioactivity, Liver / Tissue distribution of radioactivity, Lung / Tissue distribution of radioactivity, Muscle / Tissue distribution of radioactivity, Pancreas / Tissue distribution of radioactivity, Spleen / Tissue distribution of radioactivity, Testis / Tissue distribution of radioactivity, Tumor / Tissue distribution of radioactivity, Brain: tumor-bearing Fischer rats; for Tissue distribution of radioactivity, Brain: normal brain contralateral to tumor
Procedure: Tumor induction and animal preparation. All animal experiments were carried out under humane conditions and were approved by the Institutional Animal Use and Care Committee (IUCAC) at Emory University. Rat 9 L gliosarcoma cells were implanted into the brains of male Fischer rats as described previously [Shoup, T M et al. (1999), J. Nucl. Med. 40:331-338]. Briefly, anesthetized rats placed in a stereotactic head holder were injected with a suspension of 4×10^4 rat 9 L gliosarcoma cells (1×10^7 per mL) in a location 3 mm right of midline and 1 mm anterior to the bregma at a depth of 5 mm deep to the outer table. The injection was performed over the course of 2 minutes, and the needle was withdrawn over the course of 1 minute to minimize the backflow of tumor cells. The burr hole and scalp incision were closed, and the animals were returned to their original colony after recovering from the procedure. Intracranial tumors developed that produced weight loss, apathy and hunched posture in the tumor-bearing rats, and the animals were used at 17-19 days after implantation. Of the 30 animals implanted with tumor cells, 25 developed tumors visible to the naked eye upon dissection and were used in the study.
The tissue distribution of radioactivity was also determined in tumor-bearing Fischer 344 rats following intravenous injection of ˜35 μCi of [^18F]5a or [^18F]5b in 0.3 mL of sterile water. The procedure was similar to that already described for normal rats with the following modifications. The tail vein injections were performed in awake animals using a RTV-190 rodent restraint device (Braintree Scientific) to avoid mortality accompanying anesthesia in the presence of an intracranial mass. The animals were killed at 5 minutes, 60 minutes or 120 minutes post-injection. The same tissues were assayed as in normal rats with the addition of the tumor tissue, and the corresponding region of brain contralateral to the tumor was excised and used for comparison. The uptake in the tumor and contralateral brain at each time point was compared via a two-tailed t-test for paired observations (GraphPad Prism software package).

[2] = system: 9 L gliosarcoma cells; experiment: Amino acid uptake inhibition assay in 9 L gliosarcoma cells; format: cell-based, rat
Procedure: Amino acid uptake inhibition assays. The 9 L gliosarcoma cells were initially grown as monolayers in T-flasks containing Dulbecco's Modified Eagle's Medium (DMEM) under humidified incubator conditions (37° C., 5% CO2/95% air). The growth media was supplemented with 10% fetal calf serum and antibiotics (10,000 units/ml penicillin and 10 mg/ml streptomycin). The growth media was replaced three times per week, and the cells were passaged so the cells would reach confluency in a week's time.
When the monolayers were confluent, cells were prepared for experimentation in the following manner. Growth media was removed from the T-flask, and the monolayer cells were exposed to 1× trypsin:EDTA for ˜1 minute to weaken the protein attachments between the cells and the flask. The flask was then slapped, causing the cells to release. Supplemented media was added to inhibit the proteolytic action of the trypsin, and the cells were aspirated through an 18 Ga needle until they were monodisperse. A sample of the cells was counted under a microscope using a hemocytometer, and the live/dead fraction estimated through trypan blue staining (>98% viability). The remainder of the cells was placed into a centrifuge tube, centrifuged at 75 G for 5 minutes, and the supernatant was removed. The cells were then resuspended in amino-acid/serum-free DMEM salts.
In this study, approximately 4.55×10^5 cells were exposed to either [^18F]5a or [^18F]5b (5 μCi) in 3 ml of amino acid free media±transporter inhibitors (10 mM) for 30 minutes under incubator conditions in 12×75 mm glass vials. Each assay condition was performed in duplicate. After incubation, cells were twice centrifuged (75 G for 5 minutes) and rinsed with ice-cold amino-acid/serum-free DMEM salts to remove residual activity in the supernatant. The vials were placed in a Packard Cobra II Auto-Gamma counter, the raw counts decay corrected, and the activity per cell number determined. The data from these studies (expressed as percent uptake relative to control) were graphed using Excel, with statistical comparisons between the groups analyzed using a 1-way ANOVA (GraphPad Prism software package).

[3] = 60 min after injection, listed as [^18F]FAMP (5a)
[4] = 120 min after injection, listed as [^18F]FAMP (5a)

## CC(N)(CF)C(=O)O (racemic) [[^18F]5a, 2-amino-3-fluoro-2-methylpropanoic acid]
[1]; 5 min after injection
  Tissue distribution of radioactivity, Blood: 0.72 ± 0.05 percent dose per gram
  Tissue distribution of radioactivity, Bone: 0.38 ± 0.04 percent dose per gram
  Tissue distribution of radioactivity, Heart: 0.40 ± 0.04 percent dose per gram
  Tissue distribution of radioactivity, Kidney: 8.66 ± 1.27 percent dose per gram
  Tissue distribution of radioactivity, Liver: 0.77 ± 0.22 percent dose per gram
  Tissue distribution of radioactivity, Lung: 0.84 ± 0.03 percent dose per gram
  Tissue distribution of radioactivity, Muscle: 0.39 ± 0.02 percent dose per gram
  Tissue distribution of radioactivity, Pancreas: 5.31 ± 0.68 percent dose per gram
  Tissue distribution of radioactivity, Spleen: 0.72 ± 0.06 percent dose per gram
  Tissue distribution of radioactivity, Testis: 0.22 ± 0.02 percent dose per gram
  Tissue distribution of radioactivity, Tumor: 0.91 percent dose per gram
  Tissue distribution of radioactivity, Brain: 0.035 ± 0.002 percent dose per gram
[1]; 5 min after injection, listed as [^18F]FAMP (5a)
  Tissue distribution of radioactivity, Tumor: 0.91 ± 0.05 percent dose per gram
[1]; 60 min after injection
  Tissue distribution of radioactivity, Blood: 0.26 ± 0.03 percent dose per gram
  Tissue distribution of radioactivity, Bone: 0.25 ± 0.05 percent dose per gram
  Tissue distribution of radioactivity, Heart: 0.33 ± 0.06 percent dose per gram
  Tissue distribution of radioactivity, Kidney: 6.20 ± 1.45 percent dose per gram
  Tissue distribution of radioactivity, Liver: 0.66 ± 0.16 percent dose per gram
  Tissue distribution of radioactivity, Lung: 0.38 ± 0.04 percent dose per gram
  Tissue distribution of radioactivity, Muscle: 0.31 ± 0.03 percent dose per gram
  Tissue distribution of radioactivity, Pancreas: 2.86 ± 0.34 percent dose per gram
  Tissue distribution of radioactivity, Spleen: 0.55 ± 0.08 percent dose per gram
  Tissue distribution of radioactivity, Testis: 0.14 ± 0.02 percent dose per gram
  Tissue distribution of radioactivity, Tumor: 1.96 percent dose per gram
  Tissue distribution of radioactivity, Brain: 0.054 percent dose per gram
[1]; [3]
  Tissue distribution of radioactivity, Tumor: 1.96 ± 0.10 percent dose per gram
  Tissue distribution of radioactivity, Brain: 0.054 ± 0.01 percent dose per gram
[1]; 120 min after injection
  Tissue distribution of radioactivity, Blood: 0.16 ± 0.01 percent dose per gram
  Tissue distribution of radioactivity, Bone: 0.16 ± 0.01 percent dose per gram
  Tissue distribution of radioactivity, Heart: 0.22 ± 0.02 percent dose per gram
  Tissue distribution of radioactivity, Kidney: 3.64 ± 0.26 percent dose per gram
  Tissue distribution of radioactivity, Liver: 0.25 ± 0.02 percent dose per gram
  Tissue distribution of radioactivity, Lung: 0.24 ± 0.03 percent dose per gram
  Tissue distribution of radioactivity, Muscle: 0.21 ± 0.01 percent dose per gram
  Tissue distribution of radioactivity, Pancreas: 1.42 ± 0.17 percent dose per gram
  Tissue distribution of radioactivity, Spleen: 0.32 ± 0.02 percent dose per gram
  Tissue distribution of radioactivity, Testis: 0.11 ± 0.003 percent dose per gram
  Tissue distribution of radioactivity, Tumor: 1.87 percent dose per gram
  Tissue distribution of radioactivity, Brain: 0.050 percent dose per gram
[1]; [4]
  Tissue distribution of radioactivity, Tumor: 1.87 ± 0.2 percent dose per gram
  Tissue distribution of radioactivity, Brain: 0.050 ± 0.004 percent dose per gram
[1]; tumor-bearing rats, each time point (5, 60, 120 minutes)
  uptake in normal brain tissue contralateral to the tumor: approximately 0.05 % ID/g
[2]; BCH 10 mM, 30 minutes, 9 L gliosarcoma cells
  uptake of activity blocked by BCH relative to controls: 48%
[2]; N-MeAIB 10 mM, 30 minutes, 9 L gliosarcoma cells
  uptake of activity blocked by N-MeAIB relative to controls: 80%
[2]; absence of inhibitors, 30 minutes of incubation
  intracellular accumulation in 9 L gliosarcoma cells: 0.43 % of the initial dose per million cells
[2]; based on inhibition of uptake by BCH
  substrate for non-A transport system: substrate in vitro for at least one non-A transport system, possibly system L
[2]; based on inhibition of uptake by N-MeAIB
  substrate for A-type amino acid transport system: substrates for the A-type amino acid transport system
